We go through 19 compounds from patent US11702422B2, “Imidazopyridazines as modulators of IL-17” (Janssen Pharmaceutica NV, priority 2020, dated 2023).

Test [1] deals with IL-17A(FLAG-Tagged): IL-17RA(His-Tagged) (Homo sapiens, UniProt Q16552, K93Q). The test is described as follows: IL-17A(FLAG-Tagged): IL-17RA(His-Tagged) Binding Disruption Eu-HTRF Assay. Particulars: IL-17A/IL-17RA binding disruption, simple average if tested more than once. The gist of the method: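 IC50 comes from a one-site competition fit of the HTRF 665/620 nm ratio. Compound dilutions (2-fold, 22 points) were held 1 h rt with FLAG-tagged IL-17A dimer, then His-tagged IL-17RA plus Eu-cryptate anti-FLAG and D2 anti-His antibodies were added for 2 h rt.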
Chain of UniProt Q16552 (Q16552 with tags, fused parts or gaps K93Q): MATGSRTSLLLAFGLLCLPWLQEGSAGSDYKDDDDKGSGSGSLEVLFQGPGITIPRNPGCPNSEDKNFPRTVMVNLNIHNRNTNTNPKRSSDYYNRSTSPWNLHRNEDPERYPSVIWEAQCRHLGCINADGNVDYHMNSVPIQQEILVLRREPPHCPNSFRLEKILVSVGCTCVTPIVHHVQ
(In general: Time-resolved FRET reads energy transfer from a long-lived donor to a nearby acceptor.)

Test [2] deals with IL-17A-induced G-CSF production in human normal keratinocyte (NHK). Put plainly: NHK Assay: IL-17A-induced G-CSF production in human normal keratinocytes. The test is classed as cell-based. The note with it: 24 h, adult normal human keratinocytes, IL-17A 5 ng/mL, simple average if tested more than once. The gist of the method:
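HTRF read-out of supernatant G-CSF, quantified from a standard curve, gave IC50 values. Adult keratinocytes, 3000-4000 cells/well, received human IL-17A (5 ng/mL final) pre-mixed 1 h at rt with compound, in 5% FBS and 0.2% DMSO, 24 h at 37° C.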

SMILES strings stand for the structures.

Take `Cc1conc1C(=O)N[C@H](c1cn2ncc([C@H](NC(=O)CCC(F)(F)F)C3CC3)cc2n1)C1CCC(F)(F)CC1` [Example 158, N—((S)-(7-((R)-Cyclopropyl(4,4,4-trifluorobutanamido)methyl)imidazo[1,2-b]pyridazin-2-yl)(4,4-difluorocyclohexyl)methyl)-4-methylisoxazole-3-carboxamide]: the IC50 in test [1] turned out to be 0.048 µM; in test [2] (Homo sapiens, Keratinocyte), 0.21 µM.

As to `CCc1cncc(C(=O)N[C@H](c2cn3ncc([C@H](NC(=O)CCC(F)(F)F)C4CC4)cc3n2)C2CCC(F)(F)CC2)c1` [Example 452, N—((S)-(7-((R)-Cyclopropyl(4,4,4-trifluorobutanamido)methyl)imidazo[1,2-b]pyridazin-2-yl)(4,4-difluorocyclohexyl)methyl)-5-ethylnicotinamide], the 50% inhibitory concentration (IC50) in test [1] stood at 0.1 µM; in test [2] (Homo sapiens, Keratinocyte) it was 0.57 µM.

Consider `CC(C)n1nccc1C(=O)N[C@H](c1cn2ncc(C(CC3CCC3)NC(=O)CC3CC(F)(F)C3)cc2n1)C1CCC(F)(F)CC1` (single isomer, unassigned) [Example 440, N—((S)-(7-((R*)-2-Cyclobutyl-1-(2-(3,3-difluorocyclobutyl)acetamido)ethyl)imidazo[1,2-b]pyridazin-2-yl)(4,4-difluorocyclohexyl)methyl)-1-isopropyl-1H-pyrazole-5-carboxamide], for which the half-inhibitory concentration (IC50) in test [1] worked out at 0.092 µM; in test [2] it was 0.059 µM.

Take `CCc1ccccc1C(=O)N[C@H](c1cn2ncc([C@H](NC(=O)CCC(F)(F)F)C3CC3)cc2n1)C1CCC(F)(F)CC1` [Example 41, N—((S)-(7-((R)-Cyclopropyl(4,4,4-trifluorobutanamido)methyl)imidazo[1,2-b]pyridazin-2-yl)(4,4-difluorocyclohexyl)methyl)-2-ethylbenzamide]: the IC50 is 0.35 µM in test [1] and 2 µM in test [2] (Homo sapiens, Keratinocyte).

Consider `CC(C)c1ccsc1C(=O)N[C@H](c1cn2ncc([C@H](NC(=O)CCC(F)(F)F)C3CC3)cc2n1)C1CCC(F)(F)CC1` [Example 463, N—((S)-(7-((R)-Cyclopropyl(4,4,4-trifluorobutanamido)methyl)imidazo[1,2-b]pyridazin-2-yl)(4,4-difluorocyclohexyl)methyl)-3-isopropylthiophene-2-carboxamide], for which the concentration for half-maximal inhibition (IC50) in test [1] came out at 0.094 µM; in test [2] (Homo sapiens, Keratinocyte), 0.38 µM.

As for `N#CC12CC(Cn3nncc3C(=O)N[C@H](c3cn4ncc([C@H](NC(=O)CCC(F)(F)F)C5CC5)cc4n3)C3CCC(F)(F)CC3)(C1)C2` [Example 145, 1-((3-Cyanobicyclo[1.1.1]pentan-1-yl)methyl)-N—((S)-(7-((R)-cyclopropyl(4,4,4-trifluorobutanamido)methyl)imidazo[1,2-b]pyridazin-2-yl)(4,4-difluorocyclohexyl)methyl)-1H-1,2,3-triazole-5-carboxamide], the IC50 in test [1] came to 0.65 µM; in test [2] (Homo sapiens, Keratinocyte), 0.3 µM.

With `N#Cc1ccncc1C(=O)N[C@H](c1cn2ncc([C@H](NC(=O)CCC(F)(F)F)C3CC3)cc2n1)C1CCC(F)(F)CC1` [Example 225, 4-Cyano-N—((S)-(7-((R)-cyclopropyl(4,4,4-trifluorobutanamido)methyl)imidazo[1,2-b]pyridazin-2-yl)(4,4-difluorocyclohexyl)methyl)nicotinamide], the IC50 was 9.5 µM in test [1] and over 20 µM in test [2] (Homo sapiens, Keratinocyte).

Turning to `O=C(CCC(F)(F)F)N[C@@H](c1cnn2cc([C@@H](NC(=O)[C@@H]3C[C@@H]3C(F)F)C3CCC(F)(F)CC3)nc2c1)C1CC1` (relative stereo) [Example 358, (1R*,2S*)—N—((S)-(7-((R*)-Cyclopropyl(4,4,4-trifluorobutanamido)methyl)imidazo[1,2-b]pyridazin-2-yl)(4,4-difluorocyclohexyl)methyl)-2-(difluoromethyl)cyclopropane-1-carboxamide], the half-inhibitory concentration (IC50) was found to be 0.45 µM in test [1] and 2.1 µM in test [2] (Homo sapiens, Keratinocyte).

In the case of `CC(C)n1nnc(C(=O)N[C@H](c2cn3ncc([C@H](NC(=O)CCC(F)(F)F)C4CC4)cc3n2)C2CCC(F)(F)CC2)n1` [Example 484, N—[(S)-[7-[(R)-Cyclopropyl-(4,4,4-trifluorobutanamido)methyl]imidazo[1,2-b]pyridazin-2-yl]-(4,4-difluorocyclohexyl)methyl]-2-isopropyl-tetrazole-5-carboxamide], the half-maximal inhibitory concentration (IC50) in test [1] was 0.55 µM; in test [2] (Homo sapiens, Keratinocyte) it was 4.6 µM.

For `O=C(CC(C(F)(F)F)C(F)(F)F)NC(c1cnn2cc([C@@H](NC(=O)c3ccccc3)C3CCC(F)(F)CC3)nc2c1)C1CC1` (single isomer, unassigned) [Example 16, N—((S)-(7-((R*)-Cyclopropyl(4,4,4-trifluoro-3-(trifluoromethyl)butanamido)methyl)imidazo[1,2-b]pyridazin-2-yl)(4,4-difluorocyclohexyl)methyl)benzamide], the concentration for half-maximal inhibition (IC50) in test [1] and in test [2] was 0.13 µM in each case.

`Cc1nonc1C(=O)N[C@H](c1cn2ncc([C@H](NC(=O)[C@@H]3CC[C@@H]3F)C3CC3)cc2n1)C1CCC(F)(F)CC1` (relative stereo) [Example 337, N—((S)-(7-((R)-Cyclopropyl((1S*,2S*)-2-fluorocyclobutane-1-carboxamido)methyl)imidazo[1,2-b]pyridazin-2-yl)(4,4-difluorocyclohexyl)methyl)-4-methyl-1,2,5-oxadiazole-3-carboxamide]: the IC50 is 3.5 µM in test [1] and over 20 µM in test [2] (Homo sapiens, Keratinocyte).

Take `O=C(CCC(F)(F)F)N[C@@H](c1cnn2cc([C@@H](NC(=O)c3cccc(OCC(F)(F)F)n3)C3CCC(F)(F)CC3)nc2c1)C1CC1` [Example 203, N—((S)-(7-((R)-Cyclopropyl(4,4,4-trifluorobutanamido)methyl)imidazo[1,2-b]pyridazin-2-yl)(4,4-difluorocyclohexyl)methyl)-6-(2,2,2-trifluoroethoxy)picolinamide]: the IC50 in test [1] stood at 0.19 µM; in test [2] (Homo sapiens, Keratinocyte), 2.7 µM.

With `CC(C)n1nccc1C(=O)N[C@H](c1cn2ncc(C(NC(=O)CCC(F)(F)F)C3CC3)cc2n1)C1CCC(F)(F)CC1` (single isomer, unassigned) [Example 14, N—((S)-(7-((R*)-Cyclopropyl(4,4,4-trifluorobutanamido)methyl)imidazo[1,2-b]pyridazin-2-yl)(4,4-difluorocyclohexyl)methyl)-1-isopropyl-1H-pyrazole-5-carboxamide], the IC50 in test [1] was found to be 0.12 µM; in test [2] it was 0.05 µM.

Take `Cc1ncccc1C(=O)N[C@H](c1cn2ncc([C@H](NC(=O)CCC(F)(F)F)C3CC3)cc2n1)C1CCC(F)(F)CC1` [Example 200, N—((S)-(7-((R)-Cyclopropyl(4,4,4-trifluorobutanamido)methyl)imidazo[1,2-b]pyridazin-2-yl)(4,4-difluorocyclohexyl)methyl)-2-methylnicotinamide]: the IC50 in test [1] was 0.76 µM; in test [2] (Homo sapiens, Keratinocyte), 2.2 µM.

As for `CC(=O)N(C)CCn1ncc(C(=O)N[C@H](c2cn3ncc([C@H](NC(=O)CCC(F)(F)F)C4CC4)cc3n2)C2CCC(F)(F)CC2)n1` [Example 114, N—((S)-(7-((R)-Cyclopropyl(4,4,4-trifluorobutanamido)methyl)imidazo[1,2-b]pyridazin-2-yl)(4,4-difluorocyclohexyl)methyl)-2-(2-(N-methylacetamido)ethyl)-2H-1,2,3-triazole-4-carboxamide], the 50% inhibitory concentration (IC50) in test [1] was 2.1 µM; in test [2] (Homo sapiens, Keratinocyte) it was 0.37 µM.

Turning to `COc1cncc(C(=O)N[C@H](c2cn3ncc([C@H](NC(=O)CCC(F)(F)F)C4CC4)cc3n2)C2CCC(F)(F)CC2)n1` [Example 215, N—((S)-(7-((R)-Cyclopropyl(4,4,4-trifluorobutanamido)methyl)imidazo[1,2-b]pyridazin-2-yl)(4,4-difluorocyclohexyl)methyl)-6-methoxypyrazine-2-carboxamide], the concentration for half-maximal inhibition (IC50) in test [1] was 2 µM; in test [2] (Homo sapiens, Keratinocyte) it was over 20 µM.

For `Cc1nonc1C(=O)N[C@H](c1cn2ncc(C(NC(=O)CC3CC(F)(F)C3)C3CCOCC3)cc2n1)C1CCC(F)(F)CC1` (single isomer, unassigned) [Example 534, N—((S)-(7-((R*)-1-(2-(3,3-Difluorocyclobutyl)acetamido)(tetrahydro-2H-pyran-4-yl)methyl)imidazo[1,2-b]pyridazin-2-yl)(4,4-difluorocyclohexyl)methyl)-4-methyl-1,2,5-oxadiazole-3-carboxamide], the IC50 in test [1] was 0.096 µM; in test [2] (Homo sapiens, Keratinocyte) it was 0.07 µM.

Regarding `CC(C)n1nccc1C(=O)N[C@H](c1cn2ncc([C@H](NC(=O)CC(C)C(F)(F)F)C3CC3)cc2n1)C1CCC(F)(F)CC1` (single isomer, unassigned) [Example 122, N—((S)-(7-((R)-Cyclopropyl((S*)-4,4,4-trifluoro-3-methylbutanamido)methyl)imidazo[1,2-b]pyridazin-2-yl)(4,4-difluorocyclohexyl)methyl)-1-isopropyl-1H-pyrazole-5-carboxamide], the 50% inhibitory concentration (IC50) is 0.11 µM in test [1] and 0.22 µM in test [2].

Regarding `CC(C)n1nccc1C(=O)N[C@@H](COC(C)(C)C)c1cn2ncc(C(NC(=O)CCC(F)(F)F)C3CC3)cc2n1` (single isomer, unassigned) [Example 317, N—((R)-2-(tert-Butoxy)-1-(7-((S*)-cyclopropyl(4,4,4-trifluorobutanamido)methyl)imidazo[1,2-b]pyridazin-2-yl)ethyl)-1-isopropyl-1H-pyrazole-5-carboxamide], the half-maximal inhibitory concentration (IC50) in test [1] is 9.9 µM; in test [2] it was over 20 µM.

As a reminder, the IC50 is the midpoint of a concentration-inhibition curve. The low end stands for greater potency in that assay, the high end for weaker potency in that assay.
